US11780845B2 (Relay Therapeutics, Inc., priority 2019, dated 2023)
pIC50: −log10 of the molar value.

Experiments:
[1] = biological target: FGFR2 (Homo sapiens (Human), UniProt P21802); assay: FGFR2 Biochemical Caliper Assay
Description: Compounds of the present invention were also tested in a FGFR2 Biochemical Caliper Assay. Compounds were prepared in 10 mM DMSO solution and serially diluted into 11 concentrations by 3-fold dilution. […] 5 uL of ATP solution (100 uM) was added to start the reaction and the plate was incubated for 90 minutes, then 70 uL of stopping buffer (0.5M EDTA) was added to terminate the reaction. Each well was analyzed using EZ reader.

[2] = tested on: SNU16 cells; assay: SNU16 Cancer Cell Line Proliferation Assay; assay type: cell-based; conditions: SNU-16 cells
Outline: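 Proliferation read-out: CellTiter Glo chemiluminescence after 96 h compound exposure. Test compounds, serially diluted 3-fold over 11 points from a 10 mM DMSO stock, were added to SNU16 cells plated 24 h earlier at 37 degrees.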

FGFR2, sequence (P21802 22-821): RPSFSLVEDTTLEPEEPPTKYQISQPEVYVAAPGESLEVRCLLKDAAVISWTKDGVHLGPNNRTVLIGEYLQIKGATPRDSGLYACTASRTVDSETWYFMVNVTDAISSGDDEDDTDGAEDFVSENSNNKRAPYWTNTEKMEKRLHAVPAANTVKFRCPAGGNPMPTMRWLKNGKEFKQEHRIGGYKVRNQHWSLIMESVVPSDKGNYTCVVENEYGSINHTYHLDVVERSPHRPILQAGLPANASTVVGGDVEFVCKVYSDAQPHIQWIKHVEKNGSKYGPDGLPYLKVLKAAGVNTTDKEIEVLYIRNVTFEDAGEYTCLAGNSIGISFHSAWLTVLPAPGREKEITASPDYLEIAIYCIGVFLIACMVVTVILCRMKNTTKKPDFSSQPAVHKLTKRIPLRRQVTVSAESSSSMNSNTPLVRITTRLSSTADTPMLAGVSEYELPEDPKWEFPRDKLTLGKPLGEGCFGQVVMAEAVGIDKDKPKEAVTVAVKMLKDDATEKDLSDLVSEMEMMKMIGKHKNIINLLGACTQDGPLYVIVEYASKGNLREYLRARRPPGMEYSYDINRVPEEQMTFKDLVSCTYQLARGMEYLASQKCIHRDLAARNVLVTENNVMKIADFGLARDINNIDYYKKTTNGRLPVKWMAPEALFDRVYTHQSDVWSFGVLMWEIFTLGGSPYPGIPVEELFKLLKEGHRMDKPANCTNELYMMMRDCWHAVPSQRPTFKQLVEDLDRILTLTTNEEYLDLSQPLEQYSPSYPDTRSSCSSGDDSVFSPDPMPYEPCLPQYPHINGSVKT

SMILES	pIC50 [1]	pIC50 ([2]; Homo sapiens)	pIC50 [2]
C=C(C)C(=O)Nc1ccc(-c2c(-c3ccc(C(=O)N4CCC[C@H]4C#N)c(F)c3)c3c(N)ncnc3n2C)cc1 [Example 437]	> 7.00	≥ 7.00	
C=C(C)C(=O)Nc1ccc(-c2c(-c3ccc(Oc4cccc(C)n4)nc3)c3c(N)ncnc3n2C)cc1 [Example 441]	6.00 to 6.60	6.00 to 6.60	
C=C(C)C(=O)Nc1ccc(-c2c(-c3ccc(Oc4cccc(C)n4)cc3F)c3c(N)ncnc3n2C)cc1 [Example 442]	> 7.00	≥ 7.00	
C=C(C)C(=O)Nc1ccc(-c2c(-c3ccc(Oc4nccc(C)n4)c(OC)c3)c3c(N)ncnc3n2C)c(F)c1 [Example 444]	> 7.00	≥ 7.00	
C=C(C)C(=O)Nc1ccc(-c2c(-c3ccc(Oc4cccc(C)n4)c(C#N)c3)c3c(N)ncnc3n2C)cc1 [Example 445]	> 7.00	≥ 7.00	
C=C(C)C(=O)Nc1ccc(-c2c(-c3ccc(Oc4nccc(C)n4)c(OC)c3)c3c(N)ncnc3n2C)cc1 [Example 446]	6.60 to 7.00	≥ 7.00	
C=C(C)C(=O)Nc1ccc(-c2c(-c3cc(F)c(Oc4nccc(C)n4)c(F)c3)c3c(N)ncnc3n2C)cc1 [Example 447]	> 7.00	≥ 7.00	
C=C(C)C(=O)Nc1ccc(-c2c(-c3ccc(Oc4ncc(F)cn4)c(OC)c3)c3c(N)ncnc3n2C)cc1 [Example 448]	6.00 to 6.60	6.60 to 7.00	
C=C(C)C(=O)Nc1ccc(-c2c(-c3ccc(Oc4ncc(OC)cn4)c(F)c3)c3c(N)ncnc3n2C)cc1 [Example 449]	6.00 to 6.60	6.60 to 7.00	
C=C(C)C(=O)Nc1ccc(-c2c(C3=CCC(Oc4ncc(F)cn4)CC3)c3c(N)ncnc3n2C)cc1 (centres unmarked) [Example 458]	6.60 to 7.00	≥ 7.00	
C=C(C)C(=O)Nc1ccc(-c2c(-c3ccc(C(=O)N4CCC[C@H]4C#N)cc3)c3c(N)ncnc3n2C)c(F)c1 [Example 459]	> 7.00	≥ 7.00	
C=C(C)C(=O)Nc1ccc(-c2c(-c3ccc(Oc4cccc(C)n4)cn3)c3c(N)ncnc3n2C)cc1 [Example 460]	> 7.00	≥ 7.00	
C=C(C)C(=O)Nc1ccc(-c2c(-c3ccc(C(=O)N4CCC5CC54)cc3)c3c(N)ncnc3n2C)c(F)c1 (centres unmarked) [Example 461]	> 7.00	≥ 7.00	
C=C(C)C(=O)Nc1ccc(-c2c(-c3ccc(C(=O)N4CCCC[C@H]4C)cc3)c3c(N)ncnc3n2C)c(F)c1 [Example 462]	> 7.00	≥ 7.00	
C=C(C)C(=O)Nc1ccc(-c2c(-c3ccc(C(=O)N4CC5CC4C5)cc3)c3c(N)ncnc3n2C)c(F)c1 [Example 463]	> 7.00	≥ 7.00	
C=C(C)C(=O)Nc1ccc(-c2c(-c3ccc(C(=O)N(C)CC4(C#N)CC4)cc3)c3c(N)ncnc3n2C)c(F)c1 [Example 465]	> 7.00	≥ 7.00	
C=C(C)C(=O)Nc1ccc(-c2c(-c3ccc(C(=O)N(C)Cc4nc(C)no4)cc3)c3c(N)ncnc3n2C)c(F)c1 [Example 468]	> 7.00	≥ 7.00	
C=C(C)C(=O)Nc1ccc(-c2c(-c3ccc(C(=O)c4nccc(C)n4)cc3C)c3c(N)ncnc3n2C)cc1 [Example 471]	6.60 to 7.00	6.60 to 7.00	
C=C(C)C(=O)Nc1ccc(-c2c(-c3ccc(Oc4ncc(F)cn4)cn3)c3c(N)ncnc3n2C)cc1 [Example 474]	> 7.00	≥ 7.00	
C=C(C)C(=O)Nc1ccc(-c2c(-c3ccc(Oc4cccc(C)n4)c(CN(C)C)c3)c3c(N)ncnc3n2C)cc1 [Example 475]	4.00 to 6.00	6.00 to 6.60	
Cc1cccc(Oc2ccc(-c3c(-c4ccc(NC#N)cc4)n(C)c4ncnc(N)c34)cc2)n1 [Example 476]	> 7.00	≥ 7.00	
C=C(C)C(=O)Nc1ccc(-c2c(-c3ccc(Oc4nccc(C)n4)c(C)c3)c3c(N)ncnc3n2C)c(F)c1 [Example 479]	> 7.00	≥ 7.00	
C=C(C)C(=O)Nc1ccc(-c2c(-c3ccc(Oc4nccc(C)n4)c(F)c3)c3c(N)ncnc3n2C)c(F)c1 [Example 482]	> 7.00	≥ 7.00	
C=C(C)C(=O)Nc1ccc(-c2c(-c3ccc(Oc4nccc(C)n4)c(C)c3)c3c(N)ncnc3n2C)cc1 [Example 484]	> 7.00	≥ 7.00	
C=C(CN(C)C)C(=O)Nc1ccc(-c2c(-c3ccc(Oc4cccc(C)n4)cc3)c3c(N)ncnc3n2C)cc1 [Example 485]	> 7.00	≥ 7.00	
C=C(C)C(=O)Nc1ccc(-c2c(-c3ccc(C(=O)N4CC5CC5C4)cc3)c3c(N)ncnc3n2C)c(F)c1 (centres unmarked) [Example 487]	> 7.00	≥ 7.00	
C=C(C)C(=O)Nc1ccc(-c2c(-c3ccc(Oc4nccc(C)n4)c(F)c3)c3c(N)ncnc3n2CCO)cc1 [Example 490]	> 7.00	≥ 7.00	
C=C(C)C(=O)Nc1ccc(-c2c(-c3ccc(Oc4cncc(C)n4)c(F)c3)c3c(N)ncnc3n2C)cc1 [Example 492]	> 7.00	≥ 7.00	
C=C(C)C(=O)Nc1ccc(-c2c(-c3ccc(Oc4nccc(C)n4)c(F)c3)c3c(N)ncnc3n2CC)cc1 [Example 494]	> 7.00	≥ 7.00	
C=C(C)C(=O)Nc1ccc(-c2c(-c3cc(C)c(Oc4nccc(C)n4)c(OC)c3)c3c(N)ncnc3n2C)cc1 [Example 497]	6.60 to 7.00	≥ 7.00	

Results, then the compound that gave them:

pIC50 [1]	pIC50 ([2]; Homo sapiens)	pIC50 [2]	SMILES
> 7.00	≥ 7.00		C=C(C)C(=O)Nc1ccc(-c2c(-c3ccc(Oc4nccc(CO)n4)c(F)c3)c3c(N)ncnc3n2C)cc1 [Example 498]
> 7.00	≥ 7.00		C=C(C)C(=O)Nc1ccc(-c2c(-c3ccc(Oc4nccc(C)n4)c(F)c3)c3c(N)ncnc3n2C(C)C)cc1 [Example 499]
> 7.00	≥ 7.00		C=C(C)C(=O)Nc1ccc(-c2c(-c3ccc(Oc4nccc(C)n4)c(F)c3)c3c(N)ncnc3n2C)c(COC)c1 [Example 500]
> 7.00	≥ 7.00		C=C(C)C(=O)Nc1ccc(-c2c(-c3ccc(Oc4nccc(C)n4)c(F)c3)c3c(N)ncnc3n2C)c(OC)c1 [Example 502]
> 7.00	≥ 7.00		C=C(C)C(=O)Nc1ccc(-c2c(-c3ccc(Oc4nccc(C#N)n4)c(F)c3)c3c(N)ncnc3n2C)cc1 [Example 503]
> 7.00	≥ 7.00		C=C(C)C(=O)Nc1ccc(-c2c(-c3ccc(Oc4nccc(C)n4)c(Cl)c3)c3c(N)ncnc3n2C)cc1 [Example 505]
6.00 to 6.60	6.00 to 6.60		C=C(C)C(=O)Nc1ccc(-c2c(-c3ccc(Oc4ccnc(C)n4)c(Cl)c3)c3c(N)ncnc3n2C)cc1 [Example 506]
> 7.00	≥ 7.00		C=C(C)C(=O)Nc1ccc(-c2c(-c3ccc(Oc4nccc(OC)n4)c(F)c3)c3c(N)ncnc3n2C)cc1 [Example 507]
> 7.00	≥ 7.00		C=C(C)C(=O)Nc1ccc(-c2c(-c3ccc(Oc4nccc(C)n4)c(C#N)c3)c3c(N)ncnc3n2C)cc1 [Example 508]
> 7.00	≥ 7.00		C=C(C)C(=O)Nc1ccc(-c2c(-c3ccc(Oc4nccc(COC)n4)c(F)c3)c3c(N)ncnc3n2C)cc1 [Example 511]
> 7.00	≥ 7.00		Cn1c(-c2ccc(NC(=O)C3=CCC3)cc2)c(-c2ccc(C(=O)N3CCCC3)cc2)c2c(N)ncnc21 [Example 512]
> 7.00	≥ 7.00		C=C(C)C(=O)Nc1ccc(-c2c(-c3ccc(Oc4nccc(C)n4)c(F)c3)c3c(N)ncnc3n2C)c(CO)c1 [Example 513]
> 7.00	≥ 7.00		C=C(C)C(=O)Nc1ccc(-c2c(-c3ccc(Oc4nccc(C(F)F)n4)c(F)c3)c3c(N)ncnc3n2C)cc1 [Example 514]
> 7.00	≥ 7.00		C=C(C)C(=O)Nc1ccc(-c2c(-c3ccc(Oc4ncc(F)c(C)n4)c(F)c3)c3c(N)ncnc3n2C)cc1 [Example 515]
6.60 to 7.00	6.60 to 7.00		C=C(C)C(=O)Nc1ccc(-c2c(-c3ccc(C(=O)N4CCCC4)cc3)c3c(N)ncnc3n2C)c(C2CC2)c1 [Example 520]
> 7.00		≥ 7.00	C=C(C)C(=O)Nc1ccc(-c2c(-c3ccc(Oc4nccc(C)n4)cc3)c3c(N)ncnc3n2C)c(CC)c1 [Example 521]
> 7.00	≥ 7.00		C=C(CN(C)C)C(=O)Nc1ccc(-c2c(-c3ccc(C(=O)N4CCCC4)cc3)c3c(N)ncnc3n2C)cc1 [Example 522]
> 7.00	≥ 7.00		C=C(C)C(=O)Nc1ccc(-c2c(-c3ccc(Oc4nccc(C)n4)c(F)c3)c3c(N)ncnc3n2C2CCCO2)cc1 (centres unmarked) [Example 524]
> 7.00	≥ 7.00		C=C(C)C(=O)Nc1ccc(-c2c(-c3ccc(Oc4nccc(C)n4)c(F)c3)c3c(N)ncnc3n2C)c(C(F)F)c1 [Example 526]
> 7.00	≥ 7.00		C=C(C)C(=O)Nc1ccc(-c2c(-c3ccc(Oc4nccc(C)n4)c(F)c3)c3c(N)ncnc3n2C)c(C)c1 [Example 529]
> 7.00	≥ 7.00		C=C(C)C(=O)Nc1ccc(-c2c(-c3ccc(Oc4nccc(Cl)n4)c(F)c3)c3c(N)ncnc3n2C)cc1 [Example 530]
> 7.00	≥ 7.00		C=C(C)C(=O)Nc1ccc(-c2c(-c3ccc(Oc4cccc(C)n4)cc3)c3c(N)ncnc3n2C)nc1 [Example 533]
6.60 to 7.00	≥ 7.00		C=C(C)C(=O)Nc1ccc(-c2c(-c3ccc(C(=O)N4CCCC4)cc3F)c3c(N)ncnc3n2C)cc1 [Example 537]
4.00 to 6.00	6.00 to 6.60		C=C(C)C(=O)Nc1ccc(-c2c(-c3ccc(Oc4cnn(C)c4)cc3)c3c(N)ncnc3n2C)cc1 [Example 541]
> 7.00	≥ 7.00		C=C(C)C(=O)Nc1ccc(-c2c(-c3ccc(Oc4nccc(C)n4)cc3F)c3c(N)ncnc3n2C)c(F)c1 [Example 543]
